Laboratory results published in patent US20230032934A1, “METHOD OF PRODUCING TUMOR-REACTIVE T CELL COMPOSITION USING MODULATORY AGENTS” (Myst Therapeutics, LLC, priority 2019, published 2023).
Entries after “also recorded” stand apart in the source; their conditions may differ. Where a SMILES comes first, the peptide text is derived from it. The star is where a group is joined. Cbz = O=C(OCc1ccccc1)*; CH2F = FC*

Assays:
[1] = tested on: expanded human T cells from three healthy donors; assay: Effect of T cell adjuvants on T cell viability (total viable CD3+ cell count, with and without OKT3); type: cell-based; settings: 10 μg/mL for antibodies, 25 μM for Z-VAD-FMK; 6 days; irrespective of activation status
Experimental: Cells were expanded from PBMC derived from Ficoll gradient separation from three healthy donor's apheresis material. […] Because the studies were carried out in healthy donors, stimulation of the T cells was carried out with anti-CD3 (OKT3) stimulation in order to mimic conditions present in the tumor microenvironment (TME).
Cells were next seeded into gas permeable 100M culture vessels and expanded for 7-14 days to achieve a large bank of T cells, and cryopreserved. […] Half of wells were additionally supplemented with 50 ng/mL OKT3, a human anti-CD3 monoclonal antibody. In total, 15 test adjuvant agents were tested for their impact on cell viability in the presence and absence of anti-CD3 activation (see Table E3). Cells were cultured for 6 days total, including a 50% medium exchange on culture day 3, and monitored for total viable CD3+ cell count.
Total viable CD3+ cell count for cells grown in the absence and presence of OKT3 stimulation are shown in FIGS. 27A-C and FIGS. 28A-C, respectively. The results shown are for the following concentrations of adjuvant: 10 μg/mL for tested antibodies (Tavolixizumab, Oxelumab, Ipilimumab, Tocilizumab, Urelumab, Pembrolizumab, Varlilumab, anti-GITR MK-1248, anto-human FasL); 25 μM for Z-VAD-FMK pan-caspase inhibitor; 250 nM for HSP inhibitor NVP-HSP990; and 1000 IU/mL for cytokine (IL-7, IL-15, IL-21, IL-23, IL-25, IL-27, or IL-35)).

[2] = tested on: PBMC from three healthy donors; assay: T cell expansion with FasL blockade or caspase inhibition, anti-CD3 (OKT3) stimulation; type: cell-based, human; settings: OKT3 activation; agent replenished at each media exchange (continuous); 2 μM Z-VAD-FMK or 500 ng/ml NOK-1
Experimental: Apoptotic inhibitors directed against Fas- and caspase-mediated pathways were assessed to determine effects on tumor reactive T cells during manufacturing. The studies were carried out in healthy donors, and thus, stimulation of the T cells were carried out with anti-CD3 (OKT3) or anti-CD3/anti-CD28 stimulation in order to mimic conditions present in the tumor microenvironment (TME). Constant activation signals present in the tumor microenvironment, as can be stimulated by anti-CD3 or anti-CD3/anti-CD28 activation can be detrimental to T cell growth. Cellular viability and projected cell numbers were used to compare the impact of modulation of apoptotic pathways in both a transient and a continuous activation assay, the latter of which more closely recapitulates the tumor microenvironment.
Cells were then seeded into a 24-well gas permeable cell culture plate at a density of 2.14×10^5 cells/mL (7.5×10^5 cells/cm^2). Cells were activated for 48 hours using 50 ng/ml OKT3, a human anti-CD3 monoclonal antibody, and were additionally treated with agents as described below. […]
Cultures were maintained for at least 13 days with a 50% media exchange every other day beginning on culture day 2. Cell counts and viability were monitored every other day. […]

[3] = tested on: PBMC from two healthy donors; assay: T cell expansion with FasL blockade or caspase inhibition, anti-CD3/anti-CD28 bead stimulation (transient or continuous activation); type: cell-based, human
Experimental: Cells were then seeded into a 24-well gas permeable cell culture plate at a density of 1.5×10^5 cells/mL (5.0×10^5 cells/cm^2).
Culture wells were assigned to one of two treatment groups, transient or continuous activation. For transient activation, anti-CD3/anti-CD28 paramagnetic beads (Dyanbeads™) were added to the culture media at a ratio of 1 bead per cell starting on culture day 0, and then were removed during media exchange on day 2. For continuous activation, anti-CD3/anti-CD28 paramagnetic beads (Dyanbeads™) were added to the culture media at a ratio of 1 bead per cell starting on culture day 0, and then added again on Day 4, and again on Day 6 at a ratio of 1 bead per cell. The anti-CD3/anti-CD28 paramagnetic beads were not removed on Day 2, 4 or 6.
For both the continuous and transient activation, culture wells were assigned to one of five treatment groups as described above for 10 conditions total per donor.
Cell counts and viability were monitored every other day. When cells reached 3×10^6 cells/ml, 1.5×10^6 cells were sub-cultured into a new well of a 24-well gas permeable culture plate with 7 mL final volume of medium and the culture continued as described above.

[4] = tested on: CRC tumor fragment or SCS cultures; assay: Caspase inhibition in tumor processing (tumor fragment and SCS cultures); type: cell-based, human; settings: 2 μM replenished at each media exchange
Experimental: Half of cultures contained media additionally supplemented with 2 μM of pan-caspase inhibitor Z-VAD-FMK which was replenished at each media exchange. Cultures were incubated at about 37° C. for a minimum of 18 days with a 50% medium exchange occurring every 2-3 days following culture day 5. Cell counts were performed on day 5 and at each medium exchange using the NC-200 Automated Cell Counter (ChemoMetec).

[5] = tested on: expanded human T cells from three healthy donors; assay: Cytokines, modulators and agonist antibodies with IL-2 on T cell number and naive/central memory phenotype; type: cell-based
Experimental: PBMC from three healthy donors were activated, expanded, and cryopreserved as described in Example 11. […] As previously described, stimulation of the healthy donor T cells prior to cryopreservation were carried out with anti-CD3 (OKT3) stimulation in order to mimic conditions present in the tumor microenvironment (TME).
Cells were next seeded into gas permeable 100M culture vessels and expanded for 7-14 days to achieve a large bank of T cells, and cryopreserved.
Cells were maintained in culture for 6 days, with a 50% medium exchange occurring at 3 days post culture initiation.
At the end of the culture period for all culture conditions, cells were assessed for cell count and sub-phenotypes of naïve and central memory T cells by flow cytometry by staining with CD45RA and CCR7 (naïve, CD45RA+ CCR7+; “central” memory, CD45RA− CCR7+).

[6] = tested on: cells processed from melanoma tumor fragments; assay: Anti-CD3 (OKT3) stimulation on expansion of melanoma tumor-derived cells; type: cell-based, human
Experimental: Cells processed from melanoma tumor fragments as described in Examples 1 and 2, were cultured in the presence or absence of 50 ng/mL OKT3, a human anti-CD3 monoclonal antibody. Cell cultures were carried out to between 14 and 31 days, such as between 14 and 21 days, in either a conventional 6-well plate or a gas permeable culture plate with RPMI or OpTmizer media. […] About 50% of cellular media was exchanged every other day beginning on the 5th day of culture as described previously. Cells were then counted using the NC-200 Automated Cell Counter (Chemometec).

[7] = tested on: T-cells from three healthy donors; assay: Activation markers on CD4+ and CD8+ T cells after OKT3 activation, flow cytometry; type: cell-based, human; settings: 50 ng/mL OKT3 vs no OKT3; 3-48 hours
Experimental: Specific markers of activation on the CD4+ and CD8+ cell populations were measured using flow cytometry over a time course of 3-48 hours. Specifically, the following markers were assessed: CD38 and CD39 (FIG. 12A and FIG. 13A), CD134 and CD137 (FIG. 12B and FIG. 13B), and CD69 and CD90 (FIG. 12C and FIG. 13C).

COC(=O)C[C@H](NC(=O)[C@H](C)NC(=O)[C@@H](NC(=O)OCc1ccccc1)C(C)C)C(=O)CF [Z-VAD-FMK, carbobenzoxy-valyl-alanyl-aspartyl-[O-methyl]-fluoromethylketone] (Cbz-Val-Ala-Asp(OMe)-CH2F)
viable cell counts versus DMSO treatment control [1]: consistently higher viable cell counts
cell growth (total cell number) [2]: greatest cell growth
total viable cell number and viability ([3]; agent continuous, listed as caspase inhibitor): outperformed the other conditions; also recorded: outperforming the transient condition
total viable cell number and viability ([3]; agent transient (day 0 only)): outperformed the other conditions
cell viability ([4]; SCS culture): similarly high
outgrowth of T cells ([4]; SCS culture): not observed
cell viability ([4]; tumor fragment-derived culture): also high
outgrowth of cells (fold expansion, total viable cells) ([4]; tumor fragment-derived culture): superior
percent of naïve and central memory T cells compared to IL-2 alone ([5]; 0.2 μg/mL-50 μg/mL, Day 6): no effect
CD3+ cells/mL on Day 6 compared to IL-2 alone ([5]; concentrations higher than 0.2 μg/mL): substantially increased

OKT3: a human anti-CD3 monoclonal antibody
total cell number and fold expansion ([6]; 50 ng/mL OKT3 vs no OKT3, with 300 or 6000 IU/mL IL-2, 14-31 days): did not substantially impact; also recorded: largely similar
fold expansion ([6]; Donor 6, presence or absence of anti-CD3 stimulation, all conditions): 2-4 fold
upregulation of activation markers CD38, CD39, CD134, CD137, CD69, CD90 on CD4+ T cells [7]: all assessed markers were upregulated to some extent
upregulation of activation markers CD38, CD39, CD134, CD137, CD69, CD90 on CD8+ T cells [7]: all assessed markers were upregulated to some extent
